{"source": "patent US20210308093A1", "about": "“ACTIVATOR FOR SIMULTANEOUSLY ACTIVATING OXIDATIVE PHOSPHORYLATION AND INHIBITING GLYCOLYSIS AND USE THEREOF” (LANZHOU UNIVERSITY, priority 2019, published 2021)", "key": {"HuH7 cells [1]": {"system": "HuH7 cells", "assay": "siRNA knockdown of key enzyme of oxidative phosphorylation, effect on anti-cancer activity (MTT, HuH7)", "format": "cell-based", "description": "With quantitative proteomics analysis, the present disclosure finds that the natural product baicalein can activate the oxidative phosphorylation. Then, it is necessary to clarify relationship between activation of the oxidative phosphorylation by baicalein and anti-cancer activity thereof. Cancer cells have the “Warburg effect”, that is, cancer cells tend to use glycolysis in replace of the oxidative phosphorylation which normal cells tend to use, so that cancer cells grow at a much faster rate than normal cells. […] The present disclosure verifies this phenomenon in HepG2 and HuH7 cells. […] (See FIG. 4)\nThe siRNA constructs listed below were designed and synthesized by GenePharma (Shanghai, China). At a modeling stage before baicalein treatment, interference was performed based on the RNAiMAX (Thermo Fisher Scientific) protocol.\n(§1) 10^4 cells were added to a 96-well plate. 100 μL of pre-warmed medium was added to each well. After attachment, the cells were starved in a serum-free medium for 24 h, and then transferred to a normal medium containing 100 μM baicalein and cultured for another 24 h. After treatment, the cells were incubated with 100 μL of conventional medium containing 50 μg MTT (Sigma-Aldrich) for 4 h. Finally, purple precipitates were dissolved in 200 μL of DMSO (Sigma-Aldrich), and absorbance at 490 nm was measured by a microplate reader (Bio-Rad)."}, "HepG2 cells": {"system": "HepG2 cells", "assay": "MTT assay, proliferation inhibition of hepatocellular-carcinoma cell line HepG2", "format": "cell-based", "experimental": "(§2) The present disclosure carries out experiments to test proliferation inhibition effects of baicalein on hepatocellular-carcinoma cell lines HuH7 and HepG2 respectively, with IC50 values calculated. […] Moreover, the present disclosure establishes a diethylnitrosamine-induced mouse liver cancer model which is then intervened with baicalein.\n(§3) Hela, HepG2, and HuH7 cells (from China Center for Type Culture Collection (Wuhan, China)) were cultured at 37° C. with 5% CO2 in Dulbecco's modified Eagle medium (DMEM, Thermo Fisher Scientific) supplemented with 10% fetal bovine serum (Thermo Fisher Scientific) and 1% penicillin-streptomycin (Thermo Fisher Scientific).\nas §1"}, "[2]": {"system": "oxidative phosphorylation in mitochondria", "assay": "Measurement of oxidative phosphorylation (ATP production) in mitochondria extracted from HuH7 cells", "format": "biochemical", "conditions": "concentration gradient and incubation time gradient", "experimental": "Based on the above results, effect of baicalein on oxidative phosphorylation needs to be clarified initially. Therefore, effects of different concentrations of baicalein on oxidative phosphorylation are tested at a cellular level. […] Further analysis finds that, baicalein (100 μM) can improve basal respiration value, maximum respiration value and ATP production in oxidative phosphorylation. […] In order to further confirm effect of baicalein on the oxidative phosphorylation, the present disclosure further extracts mitochondria, a main site where the oxidative phosphorylation locates, and tests effect of baicalein concentration gradient and incubation time gradient on oxidative phosphorylation in the mitochondria. […] At this point, the present disclosure discovers a natural activator of the oxidative phosphorylation, the baicalein. […] Measurement of oxidative phosphorylation with Seahorse XF (Agilent): HuH7 cells, HepG2 cells and mitochondria were prepared. 1,000 cells or 4 μg mitochondria were added to the well plate provided by the Seahorse detection kit (Agilent, 103275-100). Related measurements were carried out following instructions. Measurement of oxidative phosphorylation (ATP production) with QQQ-MS (AB Sciex): mitochondria were extracted from HuH7 cells. A reaction system was prepared according to Table 1 below. 4 μg of mitochondria was added to a 100 μL reaction system. […]"}, "HuH7 cells [3]": {"system": "HuH7 cells", "assay": "MTT assay, proliferation inhibition of hepatocellular-carcinoma cell line HuH7", "format": "cell-based", "experimental": "as §2, §3, §1"}, "[4]": {"system": "oxidative phosphorylation in HepG2 cells", "assay": "Measurement of oxidative phosphorylation and glycolysis in HepG2 cells (Seahorse XF)", "format": "cell-based", "description": "With quantitative proteomics analysis, the present disclosure finds that the natural product baicalein can activate the oxidative phosphorylation. Then, it is necessary to clarify relationship between activation of the oxidative phosphorylation by baicalein and anti-cancer activity thereof. Cancer cells have the “Warburg effect”, that is, cancer cells tend to use glycolysis in replace of the oxidative phosphorylation which normal cells tend to use, so that cancer cells grow at a much faster rate than normal cells. […] The present disclosure verifies this phenomenon in HepG2 and HuH7 cells. […] 1,000 cells or 4 μg mitochondria were added to the well plate provided by the Seahorse detection kit (Agilent, 103275-100). Related measurements were carried out following instructions."}, "[5]": {"conditions": "mouse, in vivo", "experimental": "as §2\n(§4) All animal operations were carried out based on a protocol approved by the Animal Research Committee of Peking University, China, in accordance with the “Guidelines for Care and Use of Laboratory Animals” (NIH Publication No. 86-23, revised in 1985). All mice (C57BL/6j, Charles River, Beijing, China) were kept in a temperature-controlled barrier facility at Laboratory Animal Center in Peking University (laboratory animal facility approved by AAALAC) with a 12 h light/dark cycle, and had free access to food and water. Only male animals were used Animals were randomly grouped based on weight level. Five mice were selected for each group to meet requirements for statistical significance. A randomised, comparative, and single-blinded test was used. For wild littermates, modeling with diethylnitrosamine was started at 6 weeks of age and maintained for 24 weeks. After 12 weeks of modeling, 400 mg/kg baicalein (40 mg/mL saline) was administered by gavage daily for another 12 weeks, and then liver disease-related symptoms of these mice were analyzed.\n(§5) A liver sample cut from a same leaf of each animal was fixed in 4% paraformaldehyde overnight at room temperature, dehydrated with an ethanol gradient, infiltrated with xylene and embedded in paraffin. A paraffin embedded tissue was used to prepare serial sections 5 μm thick for hematoxylin and eosin (H&E) staining."}, "[6]": {"system": "diethylnitrosamine-induced hepatocellular carcinoma", "conditions": "400 mg/kg by gavage daily for 12 weeks", "experimental": "as §2, §4, §5"}, "[7]": {"system": "oxidative phosphorylation in HuH7 cells", "assay": "Measurement of oxidative phosphorylation and glycolysis in HuH7 cells (Seahorse XF)", "format": "cell-based", "experimental": "Based on the above results, effect of baicalein on oxidative phosphorylation needs to be clarified initially. Therefore, effects of different concentrations of baicalein on oxidative phosphorylation are tested at a cellular level. […] Further analysis finds that, baicalein (100 μM) can improve basal respiration value, maximum respiration value and ATP production in oxidative phosphorylation. […] In order to further confirm effect of baicalein on the oxidative phosphorylation, the present disclosure further extracts mitochondria, a main site where the oxidative phosphorylation locates, and tests effect of baicalein concentration gradient and incubation time gradient on oxidative phosphorylation in the mitochondria. […] At this point, the present disclosure discovers a natural activator of the oxidative phosphorylation, the baicalein. […] 1,000 cells or 4 μg mitochondria were added to the well plate provided by the Seahorse detection kit (Agilent, 103275-100). Related measurements were carried out following instructions."}}, "note": "Entries after “also recorded” stand apart in the source; their conditions may differ.", "data": [{"compound": "O=c1cc(-c2ccccc2)oc2cc(O)c(O)c(O)c12", "note": "[baicalein]", "values": [{"measurement": "anti-cancer activity after knockdown of a key enzyme of oxidative phosphorylation", "setting": "HuH7 cells [1]", "value": "greatly weakened"}, {"measurement": "proliferation inhibition effect", "setting": "HepG2 cells", "value": "significantly inhibits"}, {"measurement": "oxidative phosphorylation in the mitochondria", "setting": "[2]", "value": "activation of the oxidative phosphorylation in a concentration dependent and time dependent manner"}, {"measurement": "proliferation inhibition effect", "setting": "HuH7 cells [3]", "value": "significantly inhibits"}, {"measurement": "glycolysis", "setting": "[4]", "value": "inhibits the glycolysis"}, {"measurement": "level of oxidative phosphorylation", "setting": "[4]", "value": "increasing level of the oxidative phosphorylation"}, {"measurement": "liver toxicity", "setting": "[5]", "value": "no liver toxicity"}, {"measurement": "weight loss of mice", "setting": "[5]", "value": "no weight loss"}, {"measurement": "therapeutic effect on mice with hepatocellular carcinoma", "setting": "[6]", "value": "significant therapeutic effect"}, {"measurement": "glycolysis", "setting": "[7]", "value": "inhibits the glycolysis"}, {"measurement": "ATP production in oxidative phosphorylation", "setting": "[7]; baicalein 100 μM", "value": "can improve"}, {"measurement": "basal respiration value", "setting": "[7]; baicalein 100 μM", "value": "can improve"}, {"measurement": "maximum respiration value", "setting": "[7]; baicalein 100 μM", "value": "can improve"}, {"measurement": "level of oxidative phosphorylation", "setting": "[7]; different concentrations of baicalein", "value": "activates the oxidative phosphorylation in a concentration dependent manner; also recorded: increasing level of the oxidative phosphorylation"}]}]}
